Measured values from ChEMBL document CHEMBL3727356, “Therapeutic compounds and compositions” (2014).

Assays:
Pyruvate kinase PKLR [1] = target: Pyruvate kinase PKLR (Homo sapiens, UniProt P30613, R532W); experiment: Activation of PKR R532W mutant (unknown origin) incubated for 60 mins in presence of ADP, PEP and NADH by Spectraax microplate reader based assay
Pyruvate kinase PKLR [2] = target: T1, Pyruvate kinase PKLR (Homo sapiens, UniProt P30613); experiment: Activation of wild type PKR (unknown origin) by cell based assay
T1 sequence (P30613 whole entry): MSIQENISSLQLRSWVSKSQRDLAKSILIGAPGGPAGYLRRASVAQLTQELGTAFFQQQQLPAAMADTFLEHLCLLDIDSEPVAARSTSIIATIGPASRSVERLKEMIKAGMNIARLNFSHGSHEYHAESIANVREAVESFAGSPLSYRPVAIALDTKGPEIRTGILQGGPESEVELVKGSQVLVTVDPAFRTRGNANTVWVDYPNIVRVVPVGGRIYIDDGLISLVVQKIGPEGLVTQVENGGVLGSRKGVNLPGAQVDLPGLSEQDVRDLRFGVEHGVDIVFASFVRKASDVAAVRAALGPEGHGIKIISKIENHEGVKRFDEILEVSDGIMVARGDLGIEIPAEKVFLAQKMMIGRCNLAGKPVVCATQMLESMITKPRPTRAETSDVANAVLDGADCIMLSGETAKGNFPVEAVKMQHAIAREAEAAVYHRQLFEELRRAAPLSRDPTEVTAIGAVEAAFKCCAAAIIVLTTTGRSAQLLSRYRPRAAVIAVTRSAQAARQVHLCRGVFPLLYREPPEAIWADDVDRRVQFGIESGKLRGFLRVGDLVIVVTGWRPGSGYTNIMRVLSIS

Pyruvate kinase PKLR [3] = target: T1, Pyruvate kinase PKLR; experiment: Activation of wild type PKR (unknown origin) incubated for 60 mins in presence of ADP, PEP and NADH by Spectraax microplate reader based assay
Pyruvate kinase PKLR [4] = target: Pyruvate kinase PKLR (Homo sapiens, UniProt P30613, R510Q); experiment: Activation of PKR R510Q mutant (unknown origin) incubated for 60 mins in presence of ADP, PEP and NADH by Spectraax microplate reader based assay
Chain of Pyruvate kinase PKLR (Homo sapiens, UniProt P30613, R510Q) (P30613 whole entry R510Q): as the sequence (P30613 whole entry) above, with R510Q counted along it

Chain of Pyruvate kinase PKLR (Homo sapiens, UniProt P30613, R532W) (P30613 whole entry R532W): as the sequence (P30613 whole entry) above, with R532W counted along it

Compound	AC50 (Pyruvate kinase PKLR [1])	AC50 (Pyruvate kinase PKLR [2])	AC50 (Pyruvate kinase PKLR [3])	AC50 (Pyruvate kinase PKLR [4])
CC(C)CC1(CO)CCN(C(=O)c2ccc(NS(=O)(=O)c3cccc4cccnc34)cc2)CC1	< 0.1 µM	< 0.1 µM	< 0.1 µM	< 0.1 µM
Cc1nc(F)ccc1C1(O)CCN(C(=O)c2ccc(NS(=O)(=O)c3cccc4cccnc34)cc2)CC1	< 0.1 µM	< 0.1 µM	< 0.1 µM	< 0.1 µM
CC(C)CC1(O)CCN(C(=O)c2ccc(NS(=O)(=O)c3cc(F)cc4sc(N)nc34)cc2)CC1	< 0.1 µM	< 0.1 µM	< 0.1 µM	< 0.1 µM
CCCCC1(O)CCN(C(=O)c2ccc(NS(=O)(=O)c3cccc4cccnc34)cc2)CC1	< 0.1 µM	< 0.1 µM	< 0.1 µM	< 0.1 µM
O=C(c1ccc(NS(=O)(=O)c2cccc3cccnc23)cc1)N1CCC(O)(CC2CC2)CC1	< 0.1 µM	< 0.1 µM	< 0.1 µM	< 0.1 µM
CC1(O)CCC(C2(O)CCN(C(=O)c3ccc(NS(=O)(=O)c4cccc5scnc45)cc3)CC2)CC1 (centres undefined)	≥ 1.01 µM		≤ 1 µM	≥ 1.01 µM
O=C(c1ccc(NS(=O)(=O)c2cccc3cccnc23)cc1OC(F)F)N1CCC(O)(c2ccccc2Cl)CC1	< 0.1 µM	< 0.1 µM	< 0.1 µM	< 0.1 µM
O=C(c1ccc(NS(=O)(=O)c2cccc3cccnc23)cc1F)N1CCC(O)(Cc2ccccc2)CC1	< 0.1 µM	< 0.1 µM	< 0.1 µM	< 0.1 µM
O=C(c1ccc(NS(=O)(=O)Cc2ccccn2)cc1)N1CCC(O)(c2ccccc2Cl)CC1	> 10 µM		> 10 µM	> 10 µM
O=C(c1ccc(NS(=O)(=O)c2cccc3cccnc23)cc1)N1CCC(C(=O)O)(c2ccccc2)CC1	> 10 µM		> 10 µM	> 10 µM
CC1(CC2(O)CCN(C(=O)c3ccc(NS(=O)(=O)c4cccc5scnc45)cc3)CC2)CC1	< 0.1 µM		< 0.1 µM	< 0.1 µM
CC(C)CC1(O)CCN(C(=O)c2ccc(NS(=O)(=O)c3cccc4c3OCC4)cc2)CC1	≥ 1.01 µM		≥ 1.01 µM	≥ 1.01 µM
O=C(c1ccc(NS(=O)(=O)n2ccc3cccnc32)cc1)N1CCC(O)(c2ccccc2Cl)CC1	> 10 µM		> 10 µM	> 10 µM
O=C(c1ccc(NS(=O)(=O)c2ccccc2Cl)cc1)N1CCC(O)(Cc2ccccc2)CC1	≤ 1 µM		≤ 1 µM	≤ 1 µM
CC(C)CC1(O)CCN(C(=O)c2ccc(NS(=O)(=O)c3cccc4ncc(O)nc34)cc2)CC1	> 10 µM		> 10 µM	> 10 µM
O=C(c1ccc(NS(=O)(=O)c2cccc3ccnnc23)cc1)N1CCC(O)(c2ccccc2Cl)CC1	> 10 µM			> 10 µM
O=C(c1ccc(NS(=O)(=O)c2cccc3c2OCC3)cc1)N1CCC(O)(c2ccccc2Cl)CC1	≥ 1.01 µM		≥ 1.01 µM	> 10 µM
CC(C)CC1(O)CCN(C(=O)c2ccc(NS(=O)(=O)c3ccnc4scnc34)cc2)CC1	> 10 µM			> 10 µM
O=C(c1ccc(NS(=O)(=O)c2cccc3[nH]cnc23)cc1)N1CCC(O)(c2ccccc2Cl)CC1	≥ 1.01 µM		≥ 1.01 µM	> 10 µM
O=C(c1ccc(NS(=O)(=O)c2cccc3cccnc23)cc1)N1CCC(O)(c2ccccc2OC(F)(F)F)CC1	< 0.1 µM		< 0.1 µM	< 0.1 µM
O=C(c1ccc(NS(=O)(=O)c2cccc3c(O)ncnc23)cc1)N1CCC(O)(/C=C/CC(F)(F)F)CC1			< 0.1 µM	< 0.1 µM
CC(C)CC1(O)CCN(C(=O)c2ccc(NS(=O)(=O)c3cccc4[nH]cnc34)cc2)CC1	> 10 µM		> 10 µM	> 10 µM
CCS(=O)(=O)CC1(O)CCN(C(=O)c2ccc(NS(=O)(=O)c3cccc4nccnc34)cc2)CC1	≥ 1.01 µM		≥ 1.01 µM	> 10 µM
CNc1nc2c(S(=O)(=O)Nc3ccc(C(=O)N4CCC(O)(c5ccccc5Cl)CC4)cc3)cccc2s1	< 0.1 µM		< 0.1 µM	< 0.1 µM
Cn1ccc(C2(O)CCN(C(=O)c3ccc(NS(=O)(=O)c4cccc5scnc45)cc3)CC2)n1	> 10 µM		> 10 µM	> 10 µM
CC(F)(F)CCC1(O)CCN(C(=O)c2ccc(NS(=O)(=O)c3cc(F)cc4sc(N)nc34)cc2)CC1	< 0.1 µM		< 0.1 µM	< 0.1 µM

Compound	AC50 (Pyruvate kinase PKLR [1])	AC50 (Pyruvate kinase PKLR [2])	AC50 (Pyruvate kinase PKLR [3])	AC50 (Pyruvate kinase PKLR [4])
O=C(c1ccc(NS(=O)(=O)c2cccc3nccnc23)cc1)N1CCC(O)(c2ncc(Cl)s2)CC1	≤ 1 µM		≤ 1 µM	≥ 1.01 µM
CC(CC1(O)CCN(C(=O)c2ccc(NS(=O)(=O)c3cccc4c(O)ncnc34)cc2)CC1)C(F)(F)F (centres undefined)	< 0.1 µM		< 0.1 µM	< 0.1 µM
O=C(c1ccc(NS(=O)(=O)c2cccc3scnc23)cc1)N1CCC(O)(/C=C/CC(F)(F)F)CC1	< 0.1 µM		< 0.1 µM	< 0.1 µM
CS(=O)(=O)CCC1(O)CCN(C(=O)c2ccc(NS(=O)(=O)c3cccc4scnc34)cc2)CC1	> 10 µM			> 10 µM
O=C(c1ccc(NS(=O)(=O)c2ccc(F)c3cccnc23)cc1)N1CCC(O)(Cc2ccccc2F)CC1	< 0.1 µM		< 0.1 µM	< 0.1 µM
O=C(c1ccc(NS(=O)(=O)c2cccc3cccnc23)c(F)c1F)N1CCC(O)(c2ccccc2)CC1				> 10 µM
Nc1nc2c(S(=O)(=O)Nc3ccc(C(=O)N4CCC(O)(/C=C/CC(F)(F)F)CC4)cc3)cccc2s1		< 0.1 µM	< 0.1 µM	< 0.1 µM
CC1(O)CCN(C(=O)c2ccc(NS(=O)(=O)c3cccc4cccnc34)cc2)CC1				> 10 µM
O=C(c1ccc(NS(=O)(=O)c2cccc(OC(F)(F)F)c2)cc1)N1CCC(O)(Cc2ccccc2)CC1				> 10 µM
O=C(c1ccc(NS(=O)(=O)c2c(F)ccc3ncsc23)cc1)N1CCC(O)(c2ccccc2Cl)CC1				> 10 µM
CC(C)CC1(O)CCN(C(=O)c2ccc(NS(=O)(=O)c3c(F)ccc4ncsc34)cc2)CC1				> 10 µM
O=C(c1ccc(NS(=O)(=O)c2cccc3snnc23)cc1)N1CCC(O)(c2ccccc2Cl)CC1				> 10 µM
CC(C)CC1(O)CCN(C(=O)c2ccc(NS(=O)(=O)Cc3ccccn3)cc2)CC1	> 10 µM		> 10 µM	> 10 µM
O=C(c1ccc(NS(=O)(=O)c2cccc3cccnc23)cn1)N1CCC(O)(c2ccccc2)CC1				> 10 µM
Cn1ccc(CC2(O)CCN(C(=O)c3ccc(NS(=O)(=O)c4cccc5nccnc45)cc3)CC2)n1				> 10 µM
CCS(=O)(=O)CC1(O)CCN(C(=O)c2ccc(NS(=O)(=O)c3cccc4scnc34)cc2)CC1				> 10 µM
O=C(c1ccc(NS(=O)(=O)c2cccc3c2OC(F)(F)O3)cc1)N1CCC(O)(c2ccccc2Cl)CC1				> 10 µM
COc1cc(NS(=O)(=O)c2cccc3cccnc23)ccc1C(=O)N1CCC(O)(Cc2ccccc2)CC1	< 0.1 µM		< 0.1 µM	< 0.1 µM
CC1(O)CCC(C2(O)CCN(C(=O)c3ccc(NS(=O)(=O)c4cccc5nccnc45)cc3)CC2)CC1 (centres undefined)	≤ 1 µM		≤ 1 µM	≤ 1 µM
O=C1NCCC1CC1(O)CCN(C(=O)c2ccc(NS(=O)(=O)c3cccc4scnc34)cc2)CC1 (centres undefined)				> 10 µM
Nc1nc2cc(S(=O)(=O)Nc3ccc(C(=O)N4CCC(O)(c5ccccc5Cl)CC4)cc3)c(F)cc2s1	> 10 µM			> 10 µM
Nc1nc(CC2(O)CCN(C(=O)c3ccc(NS(=O)(=O)c4cccc5scnc45)cc3)CC2)cs1				> 10 µM
O=C(c1ccc(NS(=O)(=O)c2c[nH]c3cccnc23)cc1)N1CCC(O)(c2ccccc2Cl)CC1	> 10 µM		> 10 µM	> 10 µM
O=C(c1ccc(N[S+]([O-])c2cccc3cccnc23)cc1)N1CCC(O)(c2ccccc2Cl)CC1 (centres undefined)				> 10 µM
CCn1cc(CC2(O)CCN(C(=O)c3ccc(NS(=O)(=O)c4cccc5scnc45)cc3)CC2)cn1				> 10 µM
CC(C)CC1(O)CCN(C(=O)c2ccc(NS(=O)(=O)c3cnc(O)c4cccnc34)cc2)CC1	> 10 µM			> 10 µM
